Laboratory results published in patent US20240190892A1, “PLASMA KALLIKREIN INHIBITORS” (Merck Sharp & Dohme LLC, priority 2021, published 2024).

Columns and labels:
[1] = biological target: Coagulation factor XIa (Homo sapiens (Human), UniProt P03951); test: Factor XIa Assay; type: biochemical; settings: human factor XIa 0.04 nM, substrate GPR-AFC, 30 min pre-incubation at 25° C., pH 7.4; read-out: FXIa IC50
Experimental: (§1) The effectiveness of a compound of the present invention as an inhibitor of Coagulation factor XIa can be determined using a relevant purified serine protease, and an appropriate synthetic substrate. The rate of hydrolysis of the chromogenic or fluorogenic substrate by the relevant serine protease was measured both in the absence and presence of compounds of the present invention. Assays were conducted at rt or at 37° C. […] A decrease in the rate of fluorescence change in the presence of inhibitor is indicative of enzyme inhibition. Such methods are known to one skilled in the art. The results of this assay are expressed as the half-maximal inhibitory concentrations (IC50), or the inhibitory constant, Ki.
Compounds were pre-incubated for 30 min at 25° C. with human (0.04 nM) factor XIa in 50 mM HEPES buffer with 150 mM sodium chloride, 5 mM calcium chloride, 0.1% PEG 8000, pH 7.4. factor XIa enzymatic activity was determined by addition of the substrate glycine-proline-arginine-7-amido-4-trifluoromethylcoumarin (GPR-AFC) and measurement of the fluorescence at 400/505 nm after a 60 min incubation at 25° C. The % inhibition for each data point was calculated from the data and analyzed using the log (inhibitor) vs. response four parameters equation to determine the half-maximal inhibitory concentrations (IC50). The IC50 were converted to equilibrium inhibitory constants (Ki) using the Cheng-Prusoff equation.

[2] = biological target: Human plasma kallikrein (Homo sapiens (Human), UniProt P03952); test: Plasma Kallikrein Assay; type: biochemical; settings: purified Human plasma kallikrein 0.5 nM, substrate Acetyl-K-P-R-AFC, pH 7.4; read-out: PKal IC50
Human plasma kallikrein, sequence (P03952 391-638 limits assumed): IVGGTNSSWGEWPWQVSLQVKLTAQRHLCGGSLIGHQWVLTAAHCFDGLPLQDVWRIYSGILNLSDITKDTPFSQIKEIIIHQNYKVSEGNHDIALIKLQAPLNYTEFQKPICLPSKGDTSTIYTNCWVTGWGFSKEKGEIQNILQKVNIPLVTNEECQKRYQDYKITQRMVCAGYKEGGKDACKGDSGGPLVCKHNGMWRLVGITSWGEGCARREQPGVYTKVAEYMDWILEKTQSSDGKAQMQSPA
Human plasma kallikrein, sequence (P03952 20-390 partner limits assumed): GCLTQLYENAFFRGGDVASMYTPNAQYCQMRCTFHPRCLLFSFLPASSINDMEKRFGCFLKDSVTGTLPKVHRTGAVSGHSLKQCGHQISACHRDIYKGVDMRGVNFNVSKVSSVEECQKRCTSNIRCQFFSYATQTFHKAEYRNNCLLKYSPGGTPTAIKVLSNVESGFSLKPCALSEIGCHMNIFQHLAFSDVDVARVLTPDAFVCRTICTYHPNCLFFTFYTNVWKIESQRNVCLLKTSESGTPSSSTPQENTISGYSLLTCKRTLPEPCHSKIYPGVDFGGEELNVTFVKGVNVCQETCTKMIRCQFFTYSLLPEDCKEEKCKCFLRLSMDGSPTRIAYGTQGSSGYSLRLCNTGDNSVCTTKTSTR
Experimental: as §1, with “plasma kallikrein” for “Coagulation factor XIa”
Plasma kallikrein determinations were made in 50 mM HEPES buffer at pH 7.4 containing 150 mM NaCl, 5 mM CaCl2, and 0.1% PEG 8000 (polyethylene glycol; Fisher Scientific). Determinations were made using purified Human plasma kallikrein at a final concentration of 0.5 nM (Enzyme Research Laboratories) and the synthetic substrate, Acetyl-K-P-R-AFC (Sigma #C6608) at a concentration of […].
Activity assays were performed by diluting a stock solution of substrate at least tenfold to a final concentration ≤0.2 Km into a solution containing enzyme or enzyme equilibrated with inhibitor. Times required to achieve equilibration between enzyme and inhibitor were determined in control experiments. The reactions were performed under linear progress curve conditions and fluorescence increase measured at 405 Ex/510 Em nm. Values were converted to percent inhibition of the control reaction (after subtracting 100% Inhibition value). IC50 was determined by inflection point from a four parameter logistic curve fit. Ki was calculated using the Cheng Prusoff equation, Ki=IC50/(1+[S]/Km)).

Coagulation factor XIa, sequence (P03951 388-625 limits assumed): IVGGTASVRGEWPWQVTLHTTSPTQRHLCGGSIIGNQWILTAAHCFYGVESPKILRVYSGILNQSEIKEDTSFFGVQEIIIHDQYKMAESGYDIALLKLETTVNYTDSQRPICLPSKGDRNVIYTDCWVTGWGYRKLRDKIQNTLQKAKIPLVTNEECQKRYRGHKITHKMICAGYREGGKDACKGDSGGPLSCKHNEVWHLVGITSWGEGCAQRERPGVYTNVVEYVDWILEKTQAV
Coagulation factor XIa, sequence (P03951 19-387 partner limits assumed): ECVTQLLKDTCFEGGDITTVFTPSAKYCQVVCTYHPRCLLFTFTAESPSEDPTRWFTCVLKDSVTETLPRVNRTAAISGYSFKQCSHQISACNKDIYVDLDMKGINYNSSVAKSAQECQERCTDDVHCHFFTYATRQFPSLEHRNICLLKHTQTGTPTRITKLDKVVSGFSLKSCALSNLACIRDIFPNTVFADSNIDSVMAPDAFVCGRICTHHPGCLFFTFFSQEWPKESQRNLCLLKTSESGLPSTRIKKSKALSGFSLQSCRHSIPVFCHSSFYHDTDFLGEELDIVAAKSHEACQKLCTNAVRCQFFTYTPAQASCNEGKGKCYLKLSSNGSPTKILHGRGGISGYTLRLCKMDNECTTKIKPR

SMILES	IC50 [1] [nM]	IC50 [2] [nM]
Nc1nccc2cc(CNC(=O)c3cncc(N4CC[C@]5(C4)OC(=O)Nc4ccc(Cl)c(F)c45)n3)ccc12 [Example 32, (S)-N-((1-Aminoisoquinolin-6-yl)methyl)-6-(6-chloro-5-fluoro-2-oxo-1,2-dihydrospiro[benzo[d][1,3]oxazine-4,3′-pyrrolidin]-1′-yl)pyrazine-2-carboxamide]	10000	19
CN1CCN(c2ccc(CNC(=O)c3cncc(N4CC[C@]5(C4)OC(=O)Nc4ccc(Cl)c(F)c45)n3)cn2)CC1 [Example 43, (S)-6-(6-Chloro-5-fluoro-2-oxo-1,2-dihydrospiro[benzo[d][1,3]oxazine-4,3′-pyrrolidin]-1′-yl)-N-((6-(4-methylpiperazin-1-yl)pyridin-3-yl)methyl)pyrazine-2-carboxamide]	10000	1.7
Cc1cnn(Cc2ccc(CNC(=O)c3cnnc(N4CC[C@]5(C4)OC(=O)Nc4ccc(Cl)c(F)c45)c3)cc2)c1 [Example 23, (S)-6-(6-Chloro-5-fluoro-2-oxo-1,2-dihydrospiro[benzo[d][1,3]oxazine-4,3′-pyrrolidin]-1′-yl)-N-(4-((4-methyl-1H-pyrazol-1-yl)methyl)benzyl)pyridazine-4-carboxamide]	10000	0.5
O=C1Nc2ccc(Cl)c(F)c2[C@]2(CCN(c3cc(C(=O)NCc4ccc(N5CCC(F)(F)C5)cc4F)cnn3)C2)O1 [Example 8, (S)-6-(6-Chloro-5-fluoro-2-oxo-1,2-dihydrospiro[benzo[d][1,3]oxazine-4,3′-pyrrolidin]-1′-yl)-N-(4-(3,3-difluoropyrrolidin-1-yl)-2-fluorobenzyl)pyridazine-4-carboxamide]	10000	30.4
COCC1CN(c2ccc(CNC(=O)c3cncc(N4CC[C@]5(C4)OC(=O)Nc4ccc(Cl)c(F)c45)n3)cn2)C1 [Example 34, (S)-6-(6-Chloro-5-fluoro-2-oxo-1,2-dihydrospiro[benzo[d][1,3]oxazine-4,3′-pyrrolidin]-1′-yl)-N-((6-(3-(methoxymethyl)azetidin-1-yl)pyridin-3-yl)methyl)pyrazine-2-carboxamide]	10000	5.4
O=C1Nc2ccc(Cl)c(F)c2[C@]2(CCN(c3cc(C(=O)NCc4ccc(N5CCOCC5)nc4)cnn3)C2)O1 [Example 29, (S)-6-(6-Chloro-5-fluoro-2-oxo-1,2-dihydrospiro[benzo[d][1,3]oxazine-4,3′-pyrrolidin]-1′-yl)-N-((6-morpholinopyridin-3-yl)methyl)pyridazine-4-carboxamide]	10000	5
O=C1Nc2ccc(Cl)c(F)c2[C@]2(CCN(c3cc(C(=O)NCc4ccc(N5CC[C@H](F)C5)nc4)cnn3)C2)O1 [Example 5, (S)-6-(6-Chloro-5-fluoro-2-oxo-1,2-dihydrospiro[benzo[d][1,3]oxazine-4,3′-pyrrolidin]-1′-yl)-N-((6-((S)-3-fluoropyrrolidin-1-yl)pyridin-3-yl)methyl)pyridazine-4-carboxamide]	5650	3
Cc1cnn(Cc2ccc(CNC(=O)c3cc(N4CC[C@]5(C4)OC(=O)Nc4ccc(Cl)c(F)c45)ncn3)cc2)c1 [Example 19, (S)-6-(6-Chloro-5-fluoro-2-oxo-1,2-dihydrospiro[benzo[d][1,3]oxazine-4,3′-pyrrolidin]-1′-yl)-N-(4-((4-methyl-1H-pyrazol-1-yl)methyl)benzyl)pyrimidine-4-carboxamide]	10000	25.6
Cc1cnn(Cc2ccc(CNC(=O)c3ccnc(N4CC[C@]5(C4)OC(=O)Nc4ccc(Cl)c(F)c45)n3)cc2)c1 [Example 24, (S)-2-(6-Chloro-5-fluoro-2-oxo-1,2-dihydrospiro[benzo[d][1,3]oxazine-4,3′-pyrrolidin]-1′-yl)-N-(4-((4-methyl-1H-pyrazol-1-yl)methyl)benzyl)pyrimidine-4-carboxamide]	10000	13.6
CC(C)N(C)Cc1ccc(CNC(=O)c2cnnc(N3CC[C@]4(C3)OC(=O)Nc3ccc(Cl)c(F)c34)c2)cc1 [Example 48, (S)-6-(6-Chloro-5-fluoro-2-oxo-1,2-dihydrospiro[benzo[d][1,3]oxazine-4,3′-pyrrolidin]-1′-yl)-N-(4-((isopropyl(methyl)amino)methyl)benzyl)pyridazine-4-carboxamide]	10000	5.9
CCC(NCc1ccc(CNC(=O)c2cnnc(N3CC[C@]4(C3)OC(=O)Nc3ccc(Cl)c(F)c34)c2)cc1)C(F)(F)F (stereo partly drawn) [Example 46, (S)-6-(6-Chloro-5-fluoro-2-oxo-1,2-dihydrospiro[benzo[d][1,3]oxazine-4,3′-pyrrolidin]-1′-yl)-N-(4-(((1,1,1-trifluorobutan-2-yl)amino)methyl)benzyl) pyridazine-4-carboxamide]	10000	38
O=C1Nc2ccc(Cl)c(F)c2[C@]2(CCN(c3cncc4c3CCN(Cc3ccc(Cn5ccccc5=O)cc3)C4)C2)O1 [Example 51, (S)-6-Chloro-5-fluoro-1′-(7-(4-((2-oxopyridin-1(2H)-yl)methyl)benzyl)-5,6,7,8-tetrahydro-2,7-naphthyridin-4-yl)spiro[benzo[d][1,3]oxazine-4,3′-pyrrolidin]-2(1H)-one]	10000	45.9
Cc1cnn(Cc2ccc(CNC(=O)c3cncc(N4CC[C@]5(C4)OC(=O)Nc4ccc(Cl)c(F)c45)c3)cc2)c1 [Example 26, (S)-5-(6-Chloro-5-fluoro-2-oxo-1,2-dihydrospiro[benzo[d][1,3]oxazine-4,3′-pyrrolidin]-1′-yl)-N-(4-((4-methyl-1H-pyrazol-1-yl)methyl)benzyl)nicotinamide]	10000	3.1
C[C@H]1CCN(c2ccc(CNC(=O)c3cnnc(N4CC[C@]5(C4)OC(=O)Nc4ccc(Cl)c(F)c45)c3)cn2)C1 [Example 4, (S)-6-(6-Chloro-5-fluoro-2-oxo-1,2-dihydrospiro[benzo[d][1,3]oxazine-4,3′-pyrrolidin]-1′-yl)-N-((6-((S)-3-methylpyrrolidin-1-yl)pyridin-3-yl)methyl)pyridazine-4-carboxamide]	7440	1.2
N#CC1(F)CN(Cc2ccc(CNC(=O)c3cnnc(N4CC[C@]5(C4)OC(=O)Nc4ccc(Cl)c(F)c45)c3)cc2)C1 [Example 50, (S)-6-(6-Chloro-5-fluoro-2-oxo-1,2-dihydrospiro[benzo[d][1,3]oxazine-4,3′-pyrrolidin]-1′-yl)-N-(4-((3-cyano-3-fluoroazetidin-1-yl)methyl)benzyl)pyridazine-4-carboxamide]	10000	26.6
CN1CCCC1c1ccc(CNC(=O)c2cnnc(N3CC[C@]4(C3)OC(=O)Nc3ccc(Cl)c(F)c34)c2)cn1 (stereo in doubt) [Example 11, (S)-6-(6-Chloro-5-fluoro-2-oxo-1,2-dihydrospiro[benzo[d][1,3]oxazine-4,3′-pyrrolidin]-1′-yl)-N-((6-(1-methylpyrrolidin-2-yl)pyridin-3-yl)methyl)pyridazine-4-carboxamide]	10000	3.9
O=C1Nc2ccc(Cl)c(F)c2[C@]2(CCN(c3cc(C(=O)NCc4ccc(N5CCC(F)(F)C5)c(F)c4)cnn3)C2)O1 [Example 7, (S)-6-(6-Chloro-5-fluoro-2-oxo-1,2-dihydrospiro[benzo[d][1,3]oxazine-4,3′-pyrrolidin]-1′-yl)-N-(4-(3,3-difluoropyrrolidin-1-yl)-3-fluorobenzyl)pyridazine-4-carboxamide]	10000	33.5
Cc1cnn(Cc2ccc(CNC(=O)c3cncc(N4CC[C@]5(C4)OC(=O)Nc4ccc(Cl)c(F)c45)n3)cn2)c1 [Example 21, (S)-6-(6-Chloro-5-fluoro-2-oxo-1,2-dihydrospiro[benzo[d][1,3]oxazine-4,3′-pyrrolidin]-1′-yl)-N-((6-((4-methyl-1H-pyrazol-1-yl)methyl)pyridin-3-yl)methyl)pyrazine-2-carboxamide]	10000	2.3
